The text below walks through data of US20230295166A1, “ATR INHIBITORS AND USES THEREOF” (ANTENGENE DISCOVERY LIMITED, priority 2020, published 2023).

One assay deals with ATR kinase (Homo sapiens (Human), UniProt Q13535). The assay can be described thus: ATR inhibition assay (mobility shift assay, phosphorylation of FAM-RAD17). The note with it: ATR kinase (Eurofins), substrate FAM-RAD17, mobility shift. In kind it is biochemical. As for the experimental part: Assay 1: ATR Inhibition Assay
Detection of ATR kinase activity utilized the Mobility shift assay to measure the phosphorylation of the substrate protein FAM-RAD17 (GL, Cat. No. 514318, Lot. No. P19042-MJ524315). The assay was developed and conducted at Chempartner. All the test compounds were dissolved in 100% DMSO at concentration of 20 mM, then prepare compounds and conducted the assay as follows: • 1) Transfer 80 μl 20 mM compound to 40 μl of 100% DMSO in a 96-well plate. • 2) Serially dilute the compound by transferring 20 μl to 60 μl of 100% DMSO in the next well and so forth for a total of 10 concentrations. • 3) Add 100 μl of 100% DMSO to two empty wells for no compound control and no enzyme control in the same 96-well plate. Mark the plate as source plate. • 4) Transfer 40 μl of compound from source plate to a new 384-well plate as the intermediate plate. • 5) Transfer 60 nl compounds to assay plate by Echo. • 6) Add ATR kinase (Eurofins, Cat. No. 14-953, Lot. No. D14 JP007N) into Kinase base buffer (50 mM HEPES, pH 7.5; 0.0015% Brij-35; 0.01% Triton) to prepare 2× enzyme solution, then add 10 μl of 2× enzyme solution to each well of the 384-well assay plate, incubate at room temperature for 10 min. • 7) Add FAM-RAD17 and ATP (Sigma, Cat. No. A7699-1G, CAS No. 987-65-5) in the kinase base buffer to prepare 2×peptide solution, then add 10 μl to the assay plate. • 8) Incubate at 28° C. for specified period of time. Add 40 μl of stop buffer (100 mM HEPES, pH 7.5; 0.015% Brij-35; 0.2% Coating Reagent #3; 50 mM EDTA) to stop reaction. • 9) Collect data on Caliper. Convert conversion values to inhibition values.
Percent inhibition=(max−conversion)/(max−min)*100 wherein “max” stands for DMSO control; “min” stands for low control.
Fit the data in XLFit excel add-in version 5.4.0.8 to obtain IC50 values. Equation used is:
Y=Bottom+(Top−Bottom)/(1+(IC50/X)^HillSlope) wherein X means concentration in a format not transformed to logarithms.

For the next assay, the system named is LoVo (CCL-229) cells. Description: Tumor cell anti-proliferation assay (CTG assay). The assay is classed as cell-based. The note with it: LoVo human colorectal cancer cells, 96 h, CellTiter-Glo. On the procedure:
Assay 2: Tumor Cell Anti-proliferation Assay (CTG Assay)
Human colorectal cancer cells HT-29 (HTB-38) and LoVo (CCL-229) were selected for the CTG assay, the two cell lines were originally obtained from the American Type Culture Collection (ATCC). FBS and appropriate additives were added into base medium to prepare complete medium, then the cell layer was briefly rinsed with 0.25% (w/v) Trypsin-0.038% (w/v) EDTA solution to remove all traces of serum that contains trypsin inhibitor. After that, appropriate volume of Trypsin-EDTA solution was added to flask and cells under an inverted microscope were observed until cell layer was dispersed. At last, appropriate volume of complete growth medium was added and cells were aspirated by gently pipetting. Numbers were collected and counted with Vi-cell XR and cell density was adjusted, cells were seeded into 96-well opaque-walled clear bottom tissue-culture treated plates in the CO2 incubator for 20-24 hours. All the test compounds were at 10 mM in DMSO. Compounds were then added to the cell media in 3-fold serial dilutions, the final DMSO concentration was 0.5%. Plates were incubated for 96 h at 5% CO2, 37° C. Before the measurement, the appropriate volume of CellTiter-Glo Buffer was transferred into the amber bottle containing CellTiter-Glo substrate to reconstitute the lyophilized enzyme/substrate mixture, mixed gently, thereby forming the CellTiter-Glo Reagent (Promega Cat. No. G7573). The plate and its contents were equilibrated to room temperature for approximately 30 minutes, then 100 μL of CellTiter-Glo Reagent was added to the assay plate, the contents were mixed for 2 minutes on an orbital shaker to induce cell lysis, incubated at room temperature for 10 minutes to stabilize luminescent signal. At last the clear bottom was pasted with white back seal and luminescence was recorded with Enspire. IC50 and GI50 values were calculated with XLFit curve fitting software using 4 Parameter Logistic Model Y=Bottom+(Top−Bottom)/(1+(IC50/X)^HillSlope).

As a reminder, the IC50 is the concentration that inhibits the measured activity by half.

ATR kinase, sequence (Q13535 whole entry): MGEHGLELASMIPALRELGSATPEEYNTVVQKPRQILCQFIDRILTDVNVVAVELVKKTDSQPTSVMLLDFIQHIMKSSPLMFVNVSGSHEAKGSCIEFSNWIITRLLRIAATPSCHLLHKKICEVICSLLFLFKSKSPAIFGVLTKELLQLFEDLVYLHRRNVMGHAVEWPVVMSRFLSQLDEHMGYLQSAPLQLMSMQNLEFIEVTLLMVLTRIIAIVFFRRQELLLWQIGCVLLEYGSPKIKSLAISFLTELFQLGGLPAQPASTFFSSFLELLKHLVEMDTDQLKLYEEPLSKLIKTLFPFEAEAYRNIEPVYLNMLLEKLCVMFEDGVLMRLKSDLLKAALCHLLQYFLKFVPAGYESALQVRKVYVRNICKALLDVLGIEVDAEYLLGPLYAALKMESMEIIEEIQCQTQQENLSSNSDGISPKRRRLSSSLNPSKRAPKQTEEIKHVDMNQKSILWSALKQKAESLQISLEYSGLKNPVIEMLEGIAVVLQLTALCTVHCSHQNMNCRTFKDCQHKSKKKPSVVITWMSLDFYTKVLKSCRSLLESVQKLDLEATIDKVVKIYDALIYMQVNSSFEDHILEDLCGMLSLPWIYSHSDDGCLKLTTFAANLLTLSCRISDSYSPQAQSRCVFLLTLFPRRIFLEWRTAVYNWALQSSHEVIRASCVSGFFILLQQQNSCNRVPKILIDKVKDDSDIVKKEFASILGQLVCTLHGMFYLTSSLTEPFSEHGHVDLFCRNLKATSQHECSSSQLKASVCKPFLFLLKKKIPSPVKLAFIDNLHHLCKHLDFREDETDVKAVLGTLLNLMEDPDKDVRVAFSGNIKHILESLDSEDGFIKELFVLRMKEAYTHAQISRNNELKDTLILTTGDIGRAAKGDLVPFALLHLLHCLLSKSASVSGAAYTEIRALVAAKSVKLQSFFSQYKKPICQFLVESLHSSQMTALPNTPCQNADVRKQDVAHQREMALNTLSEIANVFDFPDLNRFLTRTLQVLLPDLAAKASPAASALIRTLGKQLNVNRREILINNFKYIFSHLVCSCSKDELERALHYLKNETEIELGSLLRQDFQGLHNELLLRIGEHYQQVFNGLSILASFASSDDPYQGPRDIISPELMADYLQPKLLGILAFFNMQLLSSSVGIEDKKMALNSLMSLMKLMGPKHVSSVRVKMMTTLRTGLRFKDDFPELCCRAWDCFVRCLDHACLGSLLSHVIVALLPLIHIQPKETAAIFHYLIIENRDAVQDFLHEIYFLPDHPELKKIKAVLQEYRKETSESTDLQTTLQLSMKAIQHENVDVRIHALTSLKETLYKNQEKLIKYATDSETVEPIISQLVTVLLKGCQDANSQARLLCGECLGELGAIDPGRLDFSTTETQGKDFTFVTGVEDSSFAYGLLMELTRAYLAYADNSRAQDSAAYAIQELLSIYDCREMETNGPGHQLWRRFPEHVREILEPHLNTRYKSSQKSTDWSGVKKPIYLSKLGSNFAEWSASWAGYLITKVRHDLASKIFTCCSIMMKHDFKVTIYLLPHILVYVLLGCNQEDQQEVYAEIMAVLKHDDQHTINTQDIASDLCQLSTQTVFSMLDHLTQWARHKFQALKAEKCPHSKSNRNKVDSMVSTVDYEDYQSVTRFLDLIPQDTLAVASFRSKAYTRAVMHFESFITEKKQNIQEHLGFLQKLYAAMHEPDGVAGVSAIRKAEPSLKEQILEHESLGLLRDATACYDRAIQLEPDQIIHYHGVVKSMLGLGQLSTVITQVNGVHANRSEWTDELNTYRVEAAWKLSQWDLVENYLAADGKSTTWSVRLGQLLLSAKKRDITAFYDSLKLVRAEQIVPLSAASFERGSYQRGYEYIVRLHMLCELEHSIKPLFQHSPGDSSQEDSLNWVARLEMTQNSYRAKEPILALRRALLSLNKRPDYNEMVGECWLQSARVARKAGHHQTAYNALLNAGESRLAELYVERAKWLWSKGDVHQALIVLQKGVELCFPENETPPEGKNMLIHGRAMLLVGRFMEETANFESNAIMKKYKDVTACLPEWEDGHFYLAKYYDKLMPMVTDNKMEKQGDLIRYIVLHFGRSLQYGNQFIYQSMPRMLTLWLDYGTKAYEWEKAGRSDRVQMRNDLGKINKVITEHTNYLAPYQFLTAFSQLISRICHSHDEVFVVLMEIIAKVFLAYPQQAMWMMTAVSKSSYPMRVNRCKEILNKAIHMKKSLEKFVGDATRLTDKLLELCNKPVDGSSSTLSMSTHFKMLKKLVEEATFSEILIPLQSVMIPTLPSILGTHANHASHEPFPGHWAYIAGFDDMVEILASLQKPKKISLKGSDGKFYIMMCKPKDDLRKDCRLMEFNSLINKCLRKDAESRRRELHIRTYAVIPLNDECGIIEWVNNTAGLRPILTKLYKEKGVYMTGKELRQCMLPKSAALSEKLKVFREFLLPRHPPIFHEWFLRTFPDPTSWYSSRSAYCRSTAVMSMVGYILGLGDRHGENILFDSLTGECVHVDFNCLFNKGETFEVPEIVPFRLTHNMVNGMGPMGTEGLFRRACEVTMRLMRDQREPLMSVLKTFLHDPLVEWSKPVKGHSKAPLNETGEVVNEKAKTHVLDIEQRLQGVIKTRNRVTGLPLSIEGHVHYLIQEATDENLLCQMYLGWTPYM
ATR kinase, sequence (Q8WXE1 whole entry partner): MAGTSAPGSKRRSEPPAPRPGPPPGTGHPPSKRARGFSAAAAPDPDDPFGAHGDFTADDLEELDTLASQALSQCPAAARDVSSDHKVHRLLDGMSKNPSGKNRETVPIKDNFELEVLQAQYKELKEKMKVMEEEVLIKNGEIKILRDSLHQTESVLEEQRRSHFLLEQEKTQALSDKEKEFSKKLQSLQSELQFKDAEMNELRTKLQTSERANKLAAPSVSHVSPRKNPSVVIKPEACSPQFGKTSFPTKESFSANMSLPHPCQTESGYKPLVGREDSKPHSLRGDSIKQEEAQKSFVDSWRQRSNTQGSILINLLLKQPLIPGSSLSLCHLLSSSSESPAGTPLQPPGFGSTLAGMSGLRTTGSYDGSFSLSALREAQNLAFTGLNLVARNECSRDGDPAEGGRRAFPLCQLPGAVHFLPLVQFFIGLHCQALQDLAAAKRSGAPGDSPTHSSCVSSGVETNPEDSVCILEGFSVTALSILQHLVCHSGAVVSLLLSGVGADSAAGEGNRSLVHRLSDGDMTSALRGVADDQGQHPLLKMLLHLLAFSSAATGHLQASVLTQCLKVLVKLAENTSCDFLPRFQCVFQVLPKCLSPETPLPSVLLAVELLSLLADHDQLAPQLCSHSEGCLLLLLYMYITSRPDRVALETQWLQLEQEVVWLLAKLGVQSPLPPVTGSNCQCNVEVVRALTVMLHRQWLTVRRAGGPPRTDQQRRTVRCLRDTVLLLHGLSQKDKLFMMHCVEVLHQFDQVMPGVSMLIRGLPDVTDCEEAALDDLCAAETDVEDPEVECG

In the case of `C[C@@H]1COCCN1c1cc(-c2ccnn2C)n2ncc(-c3cn[nH]c3)c2n1` [Example 2, (R)-3-methyl-4-(7-(1-methyl-1H-pyrazol-5-yl)-3-(1H-pyrazol-4-yl)pyrazolo [1,5-a]pyrimidin-5-yl)morpholine], at ATR kinase, the IC50 was over 500 nM. As for `C[C@@H]1COCCN1c1cc(-c2ccnn2C)n2ncc(-c3cccnc3)c2n1` [Example 3, (R)-3-methyl-4-(7-(1-methyl-1H-pyrazol-5-yl)-3-(pyridin-3-yl)pyrazolo[1,5-a]pyrimidin-5-yl)morpholine], the IC50 on ATR kinase was in the range of 100 to 500 nM. The same measure, in the same setting: the value for `C[C@@H]1COCCN1c1cc(-c2ccnn2C)n2ncc(-c3ccc[nH]3)c2n1` [Example 4, (R)-3-methyl-4-(7-(1-methyl-1H-pyrazol-5-yl)-3-(1H-pyrrol-2-yl)pyrazolo[1,5-a]pyrimidin-5-yl)morpholine] was under 100 nM; that for `C[C@@H]1COCCN1c1cc(C2([S@](C)(=N)=O)CC2)n2ncc(-c3ccn[nH]3)c2n1` [Example 7a, (R)-imino(methyl)(1-(5-((R)-3-methylmorpholino)-3-(1H-pyrazol-5-yl)pyrazolo[1,5-a]pyrimidin-7-yl)cyclopropyl)-λ6-sulfanone] was under 100 nM. With `Cc1cc(-c2nsc3c(N4CCCCS4(=O)=O)cc(N4CCOC[C@H]4C)nc23)[nH]n1` [Example 82, 2-[3-(3-methyl-1H-pyrazol-5-yl)-5-[(3R)-3-methylmorpholin-4-yl]-[1,2]thiazolo[4,5-b]pyridin-7-yl]-1λ^6,2-thiazinane-1,1-dione], in the assay on LoVo (CCL-229) cells, the IC50 came out at 20 nM. Still for that read-out and setting: the value for `Cc1cc(-c2nsc3c(C4(O)CCCCC4)cc(N4CCOC[C@H]4C)nc23)[nH]n1` [Example 86, (R)-1-(3-(3-methyl-1H-pyrazol-5-yl)-5-(3-methylmorpholino)isothiazolo[4,5-b]pyridin-7-yl)cyclohexan-1-ol] was 9 nM.

In the assay on LoVo (CCL-229) cells, `Cc1cc(-c2nsc3c(C4(C(N)=O)CCCCC4)cc(N4CCOC[C@H]4C)nc23)[nH]n1` [Example 88, (R)-1-(3-(3-methyl-1H-pyrazol-5-yl)-5-(3-methylmorpholino)isothiazolo[4,5-b]pyridin-7-yl)cyclohexane-1-carboxamide] showed an IC50 of 1 nM.

`C[C@@H]1COCCN1c1cc(C2(C(N)=O)CCCC2)c2snc(-c3ccn[nH]3)c2n1` [Example 90, 1-{5-[(3R)-3-methylmorpholin-4-yl]-3-(1H-pyrazol-5-yl)-[1,2]thiazolo[4,5-b]pyridin-7-yl}cyclopentane-1-carboxamide] had an IC50 in the assay on LoVo (CCL-229) cells of 5 nM. `C[C@@H]1COCCN1c1cc(C2(O)CCCCC2)c2snc(-c3ccn[nH]3)c2n1` [Example 91, (R)-1-(5-(3-methylmorpholino)-3-(1H-pyrazol-5-yl)isothiazolo[4,5-b]pyridin-7-yl)cyclohexan-1-ol]: 2 nM corresponded to half-maximal inhibition in the assay with LoVo (CCL-229) cells (IC50).

For `COC(=O)C1(c2cc(N3CCOC[C@H]3C)nc3c(-c4ccn[nH]4)nsc23)CCCC1` [Example 92], in the assay with LoVo (CCL-229) cells, the IC50 was found to be 94 nM. For the molecule `Cc1cc(-c2nsc3c(C4(S(C)(=N)=O)CC4)cc(N4CCOC[C@H]4C)nc23)[nH]n1` (stereo partly drawn) [Example 94, imino(methyl)(1-(3-(3-methyl-1H-pyrazol-5-yl)-5-((R)-3-methylmorpholino)isothiazolo[4,5-b]pyridin-7-yl)cyclopropyl)-16-sulfanone], the IC50 with LoVo (CCL-229) cells amounted to 12 nM. `Cc1cc(-c2nsc3c(-c4ccccc4S(C)(=O)=O)cc(N4CCOC[C@H]4C)nc23)[nH]n1` [Example 95, (3R)-4-[7-(2-methanesulfonylphenyl)-3-(3-methyl-1H-pyrazol-5-yl)-[1,2]thiazolo[4,5-b]pyridin-5-yl]-3-methylmorpholine] gave an IC50 with LoVo (CCL-229) cells of 36 nM. With `Cc1cc(-c2nsc3c(-c4cccnc4C(F)(F)F)cc(N4CCOC[C@H]4C)nc23)[nH]n1` [Example 96, (3R)-3-methyl-4-[3-(3-methyl-1H-pyrazol-5-yl)-7-[2-(trifluoromethyl)pyridin-3-yl]-[1,2]thiazolo[4,5-b]pyridin-5-yl]morpholine], the IC50 in the assay with LoVo (CCL-229) cells is 32.7 nM. `Cc1cc(-c2nsc3c(C(C)(C)CO)cc(N4CCOC[C@H]4C)nc23)[nH]n1` [Example 97, (R)-2-methyl-2-(3-(3-methyl-1H-pyrazol-5-yl)-5-(3-methylmorpholino)isothiazolo[4,5-b]pyridin-7-yl)propan-1-ol] gave an IC50 in the assay with LoVo (CCL-229) cells of 10 nM. In the case of `Cc1cc(-c2nsc3c(C4(CO)CC4)cc(N4CCOC[C@H]4C)nc23)[nH]n1` [Example 98, (R)-(1-(3-(3-methyl-1H-pyrazol-5-yl)-5-(3-methylmorpholino)isothiazolo[4,5-b]pyridin-7-yl)cyclopropyl)methanol], in the assay with LoVo (CCL-229) cells, half-maximal inhibition (IC50) required 14 nM. Same read-out and setting: the result for `C[C@@H]1COCCN1c1cc(C(C)(C)CO)c2snc(-c3ccn[nH]3)c2n1` [Example 100, (R)-2-methyl-2-(5-(3-methylmorpholino)-3-(1H-pyrazol-5-yl)isothiazolo[4,5-b]pyridin-7-yl)propan-1-ol] reads 16 nM; that for `C[C@@H]1COCCN1c1cc(-c2cccnc2C(F)(F)F)c2snc(-c3ccn[nH]3)c2n1` [Example 101, (3R)-3-methyl-4-[3-(1H-pyrazol-5-yl)-7-[2-(trifluoromethyl)pyridin-3-yl]-[1,2]thiazolo[4,5-b]pyridin-5-yl]morpholine], 15.5 nM; that for `Cc1cc(-c2nsc3c(-c4ncnn4C)cc(N4CCOC[C@H]4C)nc23)[nH]n1` [Example 102, (R)-3-methyl-4-(7-(1-methyl-1H-1,2,4-triazol-5-yl)-3-(3-methyl-1H-pyrazol-5-yl)isothiazolo[4,5-b]pyridin-5-yl)morpholine], 26 nM. Same read-out and setting: the value for `Cc1cc(-c2nsc3c(Cl)cc(N4CCOC[C@H]4C)nc23)[nH]n1` [Example 104, (R)-4-(7-chloro-3-(3-methyl-1H-pyrazol-5-yl)isothiazolo[4,5-b]pyridin-5-yl)-3-methylmorpholine] was 154 nM. In turn, `Cc1cc(-c2nsc3c(C4(CO)CCOCC4)cc(N4CCOC[C@H]4C)nc23)[nH]n1` [Example 105, (R)-(4-(3-(3-methyl-1H-pyrazol-5-yl)-5-(3-methylmorpholino)isothiazolo[4,5-b]pyridin-7-yl)tetrahydro-2H-pyran-4-yl)methanol] returned an IC50 in the assay on LoVo (CCL-229) cells of 9 nM. Still for that read-out and setting: the value for `Cc1cc(-c2nsc3c(C4(O)CCCC4)cc(N4CCOC[C@H]4C)nc23)[nH]n1` [Example 106, (R)-1-(3-(3-methyl-1H-pyrazol-5-yl)-5-(3-methylmorpholino)isothiazolo[4,5-b]pyridin-7-yl)cyclopentan-1-ol] was 46 nM; that for `CCn1nncc1-c1cc(N2CCOC[C@H]2C)nc2c(-c3cc(C)n[nH]3)nsc12` [Example 107, (3R)-4-[7-(1-ethyl-1H-1,2,3-triazol-5-yl)-3-(3-methyl-1H-pyrazol-5-yl)-[1,2]thiazolo[4,5-b]pyridin-5-yl]-3-methylmorpholine] was 15 nM. `Cc1cc(-c2nsc3c(P(C)(C)=O)cc(N4CCOC[C@H]4C)nc23)n(C2CCCCO2)n1` (stereo partly drawn) [Example 108, dimethyl(3-(3-methyl-1-(tetrahydro-2H-pyran-2-yl)-1H-pyrazol-5-yl)-5-((R)-3-methylmorpholino)isothiazolo[4,5-b]pyridin-7-yl)phosphine oxide]: the IC50 in the assay on LoVo (CCL-229) cells was 35 nM.
